# Reference: the supplement of paper PMC10307832
# Experiments:
# Assay in all cases: relative viability (nuclei count vs DMSO), 5 days (fraction); higher = more cells survive
# [1] = system: NCI-H3122
# How it was run: (§1)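 Relative viability is defined as nuclei in treated wells over nuclei in vehicle wells. Duplicate plates were run and medians reported. Lung cancer cell lines in 1536-well plates were dosed by pin tool one day after seeding, with one drug or with a fixed anchor-drug dose plus five library-drug doses (not always all listed) in √10 steps, and nuclei were counted after 5 days.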
# [2] = system: NCI-H661
# How it was run: as §1
# [3] = system: ChaGo-K-1
# How it was run: as §1
# [4] = system: H3255
# How it was run: as §1
# [5] = system: NCI-H2228
# How it was run: as §1
# [6] = system: NCI-H2126
# How it was run: as §1
# [7] = system: SW 900
# How it was run: as §1
# [8] = system: SK-LU-1
# How it was run: as §1
# [9] = system: NCI-H650
# How it was run: as §1
# [10] = system: EKVX
# How it was run: as §1
# [11] = system: NCI-H23
# How it was run: as §1
# [12] = system: NCI-H596
# How it was run: as §1
smiles,measurement,setting,value
CCNC(=O)c1noc(-c2cc(C(C)C)c(O)cc2O)c1-c1ccc(CN2CCOCC2)cc1 [Luminespib] + COc1cc2c(Oc3ccc(NC(=O)C4(C(=O)Nc5ccc(F)cc5)CC4)cc3F)ccnc2cc1OCCCN1CCOCC1 [Foretinib] (partner 0.25 µM),relative viability,[1]; first compound 0.002 µM,1.07
same,relative viability,[1]; first compound 0.006325 µM,0.887
same,relative viability,[1]; first compound 0.02 µM,0.925
same,relative viability,[1]; first compound 0.06325 µM,0.0893
same,relative viability,[1]; first compound 0.2 µM,0.0769
same,relative viability,[2]; first compound 0.002 µM,1.11
same,relative viability,[2]; first compound 0.006325 µM,0.992
same,relative viability,[2]; first compound 0.02 µM,0.922
same,relative viability,[2]; first compound 0.06325 µM,0.597
same,relative viability,[2]; first compound 0.2 µM,0.301
same,relative viability,[3]; first compound 0.002 µM,0.889
same,relative viability,[3]; first compound 0.006325 µM,0.92
same,relative viability,[3]; first compound 0.02 µM,1.02
same,relative viability,[3]; first compound 0.06325 µM,0.37
same,relative viability,[3]; first compound 0.2 µM,0.299
same,relative viability,[4]; first compound 0.002 µM,0.785
same,relative viability,[4]; first compound 0.006325 µM,0.821
same,relative viability,[4]; first compound 0.06325 µM,0.833
same,relative viability,[4]; first compound 0.2 µM,0.329
same,relative viability,[5]; first compound 0.002 µM,0.776
same,relative viability,[5]; first compound 0.006325 µM,0.844
same,relative viability,[5]; first compound 0.02 µM,0.692
same,relative viability,[5]; first compound 0.06325 µM,0.111
same,relative viability,[5]; first compound 0.2 µM,0.117
same,relative viability,[6]; first compound 0.002 µM,0.865
same,relative viability,[6]; first compound 0.006325 µM,1.07
same,relative viability,[6]; first compound 0.02 µM,0.882
same,relative viability,[6]; first compound 0.06325 µM,0.589
same,relative viability,[6]; first compound 0.2 µM,0.207
same,relative viability,[7]; first compound 0.002 µM,0.966
same,relative viability,[7]; first compound 0.006325 µM,0.742
same,relative viability,[7]; first compound 0.02 µM,0.813
same,relative viability,[7]; first compound 0.06325 µM,0.134
same,relative viability,[7]; first compound 0.2 µM,0.117
same,relative viability,[8]; first compound 0.002 µM,0.825
same,relative viability,[8]; first compound 0.006325 µM,0.559
same,relative viability,[8]; first compound 0.02 µM,0.392
same,relative viability,[8]; first compound 0.06325 µM,0.131
same,relative viability,[8]; first compound 0.2 µM,0.133
same,relative viability,[9]; first compound 0.002 µM,1.09
same,relative viability,[9]; first compound 0.006325 µM,0.974
same,relative viability,[9]; first compound 0.02 µM,0.782
same,relative viability,[9]; first compound 0.06325 µM,0.811
same,relative viability,[9]; first compound 0.2 µM,0.149
same,relative viability,[10]; first compound 0.002 µM,0.75
same,relative viability,[10]; first compound 0.006325 µM,0.453
same,relative viability,[10]; first compound 0.06325 µM,0.815
same,relative viability,[10]; first compound 0.2 µM,0.108
same,relative viability,[11]; first compound 0.002 µM,1.26
same,relative viability,[11]; first compound 0.006325 µM,1.03
same,relative viability,[11]; first compound 0.02 µM,0.858
same,relative viability,[11]; first compound 0.06325 µM,0.971
same,relative viability,[11]; first compound 0.2 µM,0.591
same,relative viability,[12]; first compound 0.002 µM,0.868
same,relative viability,[12]; first compound 0.006325 µM,0.78
same,relative viability,[12]; first compound 0.02 µM,0.695
